# Assay results as given in US10881653B2, “Tricyclic compounds and their use in the treatment of cancer” (The United States of America, as represented by the …, priority 2015, dated 2021).
# Counter-ions that a name gives are not always drawn.
# Key:
# Assay in all cases: Cell growth inhibition GI50
# Assay type in all cases: cell-based
# HOP-62 = settings: Homo sapiens, Non-Small Cell Lung Cancer
# Description: (§1) Cell lines were plated 2000 cells/well in 96-well black optical plates in the presence of 10% FBS media containing 25 nM selenite. The following day cells were treated with various concentrations of the compound of Example 1 (0.1% DMSO final) and incubated for 72 hrs. After the incubation Cell-Quanti Blue reagent was added to each well and incubated for additional 3 hrs. Fluorescence was read ex:530 nm/em:590 nm, and percent of viability was determined using DMSO vehicle and no cell (blank) controls.
# (§2) Further results obtained in similar experiments were as indicated below (GI50 refers to concentration of compound yielding 50% growth inhibition; E denotes an exponent to the base 10).
# BT-549 = settings: Homo sapiens, Breast Cancer
# Description: as §1, §2
# MALME-3M = settings: Homo sapiens, Melanoma
# Description: as §1, §2
# A498 = settings: Homo sapiens, Renal Cancer
# Description: as §1, §2
# NCI-H23 = settings: Homo sapiens, Non-Small Cell Lung Cancer
# Description: as §1, §2
# HS 5781 = settings: Breast Cancer
# Description: as §1, §2
# MOLT-4 = settings: Homo sapiens, Leukemia
# Description: as §1, §2
# ACHN = settings: Homo sapiens, Renal Cancer
# Description: as §1, §2
# SF-539 = settings: Homo sapiens, CNS Cancer
# Description: as §1, §2
# SW-620 = settings: Homo sapiens, Colon Cancer
# Description: as §1, §2
# SK-MEL-2 = settings: Homo sapiens, Melanoma
# Description: as §1, §2
# SK-MEL-5 = settings: Homo sapiens, Melanoma
# Description: as §1, §2
# NCI-H460 = settings: Homo sapiens, Non-Small Cell Lung Cancer
# Description: as §1, §2
# MCF7 = settings: Homo sapiens, Breast Cancer
# Description: as §1, §2
# DU-145 = settings: Homo sapiens, Prostate Cancer
# Description: as §1, §2
# SNB-75 = settings: Homo sapiens, CNS Cancer
# Description: as §1, §2
# RXF 393 = settings: Homo sapiens, Renal Cancer
# Description: as §1, §2
# 786-0 = settings: Homo sapiens, Renal Cancer
# Description: as §1, §2
# OVCAR-4 = settings: Homo sapiens, Ovarian Cancer
# Description: as §1, §2
# SNB-19 = settings: Homo sapiens, CNS Cancer
# Description: as §1, §2
# CAKI-1 = settings: Homo sapiens, Renal Cancer
# Description: as §1, §2
# NCI-H226 = settings: Homo sapiens, Non-Small Cell Lung Cancer
# Description: as §1, §2
# COLO 205 = settings: Homo sapiens, Colon Cancer
# Description: as §1, §2
# A549/ATCC = settings: Homo sapiens, Non-Small Cell Lung Cancer
# Description: as §1, §2
# EKVX = settings: Homo sapiens, Non-Small Cell Lung Cancer
# Description: as §1, §2
# MDA-MB-435 = settings: Homo sapiens, Melanoma
# Description: as §1, §2
# SR = settings: Homo sapiens, Leukemia
# Description: as §1, §2
# K-562 = settings: Homo sapiens, K562, Leukemia
# Description: as §1, §2
# SF-295 = settings: Homo sapiens, CNS Cancer
# Description: as §1, §2
# TK-10 = settings: Homo sapiens, Renal Cancer
# Description: as §1, §2
# HCT-116 = settings: Homo sapiens, Colon Cancer
# Description: as §1, §2
# T-47D = settings: Homo sapiens, T47D, Breast Cancer
# Description: as §1, §2
# UACC-62 = settings: Homo sapiens, Melanoma
# Description: as §1, §2
# SN12C = settings: Homo sapiens, Renal Cancer
# Description: as §1, §2
# KM12 = settings: Homo sapiens, Colon Cancer
# Description: as §1, §2
# SK-MEL-28 = settings: Homo sapiens, Melanoma
# Description: as §1, §2
structure (smiles),measurement,setting,value
"O=C1C=C[C@H]2[C@@H]3C(=O)N(c4ccccc4)C(=O)[C@@H]3[C@@H]1N2Cc1ccccc1 (relative stereo) [Example 1, exo-11-Benzyl-4-phenyl-4,11-diazatricyclo[5.3.1.0^2,6]undec-9-ene-3,5,8-trione Trifluoroacetate]",GI50,HOP-62,1.38 µM
same,GI50,BT-549,3.45 µM
same,GI50,MALME-3M,4.62 µM
same,GI50,A498,8.57 µM
same,GI50,NCI-H23,5.37 µM
same,GI50,HS 5781,3.51 µM
same,GI50,MOLT-4,1.72 µM
same,GI50,ACHN,3.36 µM
same,GI50,SF-539,1.66 µM
same,GI50,SW-620,1.86 µM
same,GI50,SK-MEL-2,4.37 µM
same,GI50,SK-MEL-5,3.56 µM
same,GI50,NCI-H460,3.49 µM
same,GI50,MCF7,3.19 µM
same,GI50,DU-145,9.66 µM
same,GI50,SNB-75,4.19 µM
same,GI50,RXF 393,2.42 µM
same,GI50,786-0,1.69 µM
same,GI50,OVCAR-4,5.53 µM
same,GI50,SNB-19,6.04 µM
same,GI50,CAKI-1,4.09 µM
same,GI50,NCI-H226,7.26 µM
same,GI50,COLO 205,5.47 µM
same,GI50,A549/ATCC,14.9 µM
same,GI50,EKVX,7.78 µM
same,GI50,MDA-MB-435,2.72 µM
same,GI50,SR,1.87 µM
same,GI50,K-562,1.67 µM
same,GI50,SF-295,6.41 µM
same,GI50,TK-10,8.07 µM
same,GI50,HCT-116,1.56 µM
same,GI50,T-47D,4.92 µM
same,GI50,UACC-62,2.01 µM
same,GI50,SN12C,1.64 µM
same,GI50,KM12,2.56 µM
same,GI50,SK-MEL-28,3.01 µM
